Tests used:
HIV-1 PR = HIV-1 PR (Human immunodeficiency virus type 1 group M subtype B, UniProt P04585); assay: HIV-protease inhibitory activity assay (FRET peptide substrate); type: biochemical; details: Test Example 1
Outline: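 Fluorescence recovery at ex 485/em 535 nm reports cleavage of a quenched FRET peptide (2 μmol/L final) by 0.83 ng enzyme over 60 minutes at room temperature. Buffer was NaAc pH 4.8 with NaCl, EDTA, DTT and Tween 20. IC50 values came from four-parameter logistic regression of % inhibition.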

[1] = Evaluation of total body clearance (CLtot), intravenous administration; type: in vivo, Sprague-Dawley (SD); details: rat (SD), intravenous administration 0.5-10 mg/kg; CLtot = dose/AUC
Description: Dose: Intravenous administration with designated doses was selected. (Doses were changed depending on compounds.) • 0.5-10 mg/kg (n=2-3) Preparation of dosing formulation: The dosing solution was prepared by dissolving in an adequate solvent. Administration method: The dosing solution was injected into the tail vein by a syringe with a needle Blood sampling: The blood was collected at the scheduled time and obtained the plasma. Plasma concentrations of the compound were measured by LC/MS/MS. Statistical analysis: Area under the plasma concentration-time curve (AUC) of the compound was calculated by pharmacokinetic analysis software, WinNonlin™ and CLtot was calculated by dividing the dose by AUC.

Structure (SMILES) | IC50 (HIV-1 PR) [nM] | rat_CLt [1] [mL/min/kg]
COc1ccc(S(=O)(=O)N(CC(C)C)CC(O)C(Cc2ccc(NCc3cccc(C(=O)Nc4sc5c(c4C(=O)O)CC(C)(C)CC5)c3)cc2)NC(=O)OC2COC3(C)OCCC23)cc1 (stereo not drawn) [Compound I-436] | 3.17 | 1.72
COc1ccc(S(=O)(=O)N(CC(C)C)CC(O)C(Cc2ccc(NCc3ccc4scc(C(=O)Nc5sc6c(c5C(=O)O)CC(C)(C)CC6)c4c3)cc2)NC(=O)OC2COC3(C)OCCC23)cc1 (stereo not drawn) [Compound I-440] | 4.5 | 0.871
COc1ccc(S(=O)(=O)N(CC(C)C)CC(O)C(Cc2ccc(N(C)Cc3cc(-c4sc5c(c4C(=O)O)CC(C)(C)CC5)co3)cc2)NC(=O)OC2COC3(C)OCCC23)cc1 (stereo not drawn) [Compound I-448] | 2.31 | 5.28
COc1ccc(S(=O)(=O)N(CC(C)C)CC(O)C(Cc2ccc(N(C)Cc3ccc(-c4sc5c(c4C(=O)O)CC(C)(C)CC5)cn3)cc2)NC(=O)OC2COC3(C)OCCC23)cc1 (stereo not drawn) [Compound I-449] | 2.19 | 11.1
COc1ccc(S(=O)(=O)N(CC(C)C)CC(O)C(Cc2ccc(N(C)Cc3ccc(-c4sc5c(c4C(=O)O)CC(C)(C)CC5)cc3)cc2)NC(=O)OC2COC3(C)OCCC23)cc1 (stereo not drawn) [Compound I-450] | 2.68 | 3.7
COc1ccc(S(=O)(=O)N(CC(C)C)CC(O)C(Cc2ccc(N(C)Cc3cc(C(F)(F)F)ccc3-c3sc4c(c3C(=O)O)CC(C)(C)CC4)cc2)NC(=O)OC2COC3(C)OCCC23)cc1 (stereo not drawn) [Compound I-451] | 9.46 | 0.211
COc1ccc(S(=O)(=O)N(CC(C)C)CC(O)C(Cc2ccc(NCc3cc4ccccc4c(-c4sc5c(c4C(=O)O)CC(C)(C)CC5)n3)cc2)NC(=O)OC2COC3(C)OCCC23)cc1 (stereo not drawn) [Compound I-453] | 2.63 | 0.593
COc1ccc(S(=O)(=O)N(CC(C)C)CC(O)C(Cc2ccc(NCc3ccccc3-c3sc(N(C4CCCCC4)C4CCCCC4)nc3C(=O)O)cc2)NC(=O)OC2COC3(C)OCCC23)cc1 (stereo not drawn) [Compound I-454] | 5.51 | 4.02
COc1ccc(S(=O)(=O)N(CC(C)C)CC(O)C(Cc2ccc(NCc3cc(N(C)C)ccc3-c3sc4c(c3C(=O)O)CC(C)(C)CC4)cc2)NC(=O)OC2COC3(C)OCCC23)cc1 (stereo not drawn) [Compound I-455] | 2.38 | 0.236
CC(C)CN(CC(O)C(Cc1ccc(NCc2ccccc2-c2sc3c(c2C(=O)O)CC(C)(C)CC3)cc1)NC(=O)OC1COC2(C)OCCC12)S(=O)(=O)c1ccc2c(c1)OCO2 (stereo not drawn) [Compound I-465] | 2.97 | 0.675
COc1ccc(S(=O)(=O)N(CC(C)C)CC(O)C(Cc2ccc(N(C)Cc3ccccc3-n3nc4c(c3C(=O)O)CC3(CCCC3)CC4)cc2)NC(=O)OC2COC3(C)OCCC23)cc1 (stereo not drawn) [Compound I-466] | 4.28 | 1.75
CC(C)CN(CC(O)C(Cc1ccc(NCc2ccccc2-c2sc3c(c2C(=O)O)CC(C)(C)CC3)cc1)NC(=O)OC1COC2(C)OCCC12)S(=O)(=O)c1ccc2ncsc2c1 (stereo not drawn) [Compound I-467] | 2.42 | 2.36
COc1ccc(S(=O)(=O)N(CC(C)C)CC(O)C(Cc2ccc(N(C)Cc3ccccc3-c3sc(N(C4CCCCC4)C4CCCCC4)nc3C(=O)O)cc2)NC(=O)OC2COC3(C)OCCC23)cc1 (stereo not drawn) [Compound I-471] | 4.69 | 2.17
COc1ccc(S(=O)(=O)N(CC(O)C(Cc2ccc(NCc3ccccc3-c3sc4c(c3C(=O)O)CC(C)(C)CC4)cc2)NC(=O)OC2COC3(C)OCCC23)CC(C)(C)C)cc1 (stereo not drawn) [Compound I-473] | 2.71 | 1.22
COc1ccc(S(=O)(=O)N(CC2CCC2)CC(O)C(Cc2ccc(NCc3ccccc3-c3sc4c(c3C(=O)O)CC(C)(C)CC4)cc2)NC(=O)OC2COC3(C)OCCC23)cc1 (stereo not drawn) [Compound I-474] | 2.14 | 1.28
COc1ccc(S(=O)(=O)N(CCC(C)C)CC(O)C(Cc2ccc(NCc3ccccc3-c3sc4c(c3C(=O)O)CC(C)(C)CC4)cc2)NC(=O)OC2COC3(C)OCCC23)cc1 (stereo not drawn) [Compound I-475] | 2.42 | 2.28
COc1ccc(S(=O)(=O)N(CC(C)C)CC(O)C(Cc2ccc(NCc3cc(N4CCCC4)ccc3-c3sc4c(c3C(=O)O)CC(C)(C)CC4)cc2)NC(=O)OC2COC3(C)OCCC23)cc1 (stereo not drawn) [Compound I-480] | 2.36 | 0.0997
COc1ccc(S(=O)(=O)N(CC(C)C)CC(O)C(Cc2ccc(NCc3ccc(C(=O)NCc4ccc(F)cc4)cc3-c3sc4c(c3C(=O)O)CC(C)(C)CC4)cc2)NC(=O)OC2COC3(C)OCCC23)cc1 (stereo not drawn) [Compound I-481] | 3.72 | 3.29

Structure (SMILES) | IC50 (HIV-1 PR) [nM] | rat_CLt [1] [mL/min/kg]
COc1ccc(S(=O)(=O)N(CC2CCCC2)CC(O)C(Cc2ccc(NCc3ccccc3-c3sc4c(c3C(=O)O)CC(C)(C)CC4)cc2)NC(=O)OC2COC3(C)OCCC23)cc1 (stereo not drawn) [Compound I-483] | 2.75 | 2.41
CC1(C)CCc2sc(-c3ccccc3CNc3ccc(CC(NC(=O)OC4COC5(C)OCCC45)C(O)CN(CC4CCCC4)S(=O)(=O)c4ccc5c(c4)OCO5)cc3)c(C(=O)O)c2C1 (stereo not drawn) [Compound I-484] | 2.43 | 1.58
COc1ccc(S(=O)(=O)N(CC(C)C)CC(O)C(Cc2ccc(NCc3cccc(C(F)(F)F)c3-c3sc4c(c3C(=O)O)CC(C)(C)CC4)cc2)NC(=O)OC2COC3(C)OCCC23)cc1 (stereo not drawn) [Compound I-485] | 2.28 | 0.45
COc1ccc(S(=O)(=O)N(CC(C)C)CC(O)C(Cc2ccc(NCc3ccc4nc(-c5sc6c(c5C(=O)O)CC(C)(C)CC6)sc4c3)cc2)NC(=O)OC2COC3(C)OCCC23)cc1 (stereo not drawn) [Compound I-487] | 3.03 | 3.16
COc1ccc(S(=O)(=O)N(CC(C)C)CC(O)C(Cc2ccc(N(C)Cc3ccc(C)cc3-c3sc4c(c3C(=O)O)CC(C)(C)CC4)cc2)NC(=O)OC2COC3(C)OCCC23)cc1 (stereo not drawn) [Compound I-488] | 2.2 | 0.501
COc1ccc(S(=O)(=O)N(CC(C)C)CC(O)C(Cc2ccc(N(C)Cc3ccc(OC)cc3-c3sc4c(c3C(=O)O)CC(C)(C)CC4)cc2)NC(=O)OC2COC3(C)OCCC23)cc1 (stereo not drawn) [Compound I-490] | 2.01 | 0.88
COc1ccc(S(=O)(=O)N(CC(C)C)CC(O)C(Cc2ccc(N(C)Cc3ccc(F)cc3-c3sc4c(c3C(=O)O)CC(C)(C)CC4)cc2)NC(=O)OC2COC3(C)OCCC23)cc1 (stereo not drawn) [Compound I-491] | 1.92 | 3.32
COc1ccc(S(=O)(=O)N(CC(C)C)CC(O)C(Cc2ccc(N(C)Cc3occc3-c3sc4c(c3C(=O)O)CC(C)(C)CC4)cc2)NC(=O)OC2COC3(C)OCCC23)cc1 (stereo not drawn) [Compound I-492] | 1.84 | 17.3
CC(C)CN(CC(O)C(Cc1ccc(NCc2ccccc2-c2sc3c(c2C(=O)O)CC(C)(C)CC3)cc1)NC(=O)OC1COC2(C)OCCC12)S(=O)(=O)c1ccc(OCF)cc1 (stereo not drawn) [Compound I-507] | 1.85 | 1.61
COc1ccc(S(=O)(=O)N(CC(C)C)CC(O)C(Cc2ccc(N3CCC(Oc4cc5ccccc5cc4-c4sc5c(c4C(=O)O)CC(C)(C)CC5)C3)cc2)NC(=O)OC2COC3(C)OCCC23)cc1 (stereo not drawn) [Compound I-509] | 1.96 | 0.377
COc1ccc(S(=O)(=O)N(CC(C)C)CC(O)C(Cc2ccc(N(C)Cc3cccc(-c4sc5c(c4C(=O)O)CC(C)(C)CC5)c3C)cc2)NC(=O)OC2COC3(C)OCCC23)cc1 (stereo not drawn) [Compound I-510] | 10.6 | 1.08
CC1(C)CCc2sc(-c3ccccc3CNc3ccc(CC(NC(=O)OC4COC5(C)OCCC45)C(O)CN(CC4CCCC4)S(=O)(=O)c4ccc5ncsc5c4)cc3)c(C(=O)O)c2C1 (stereo not drawn) [Compound I-513] | 1.76 | 3.23
COc1ccc(S(=O)(=O)N(CC(C)C)CC(O)C(Cc2ccc(N3CCC(Oc4ccc(C(F)(F)F)cc4-c4sc5c(c4C(=O)O)CC(C)(C)CC5)C3)cc2)NC(=O)OC2COC3(C)OCCC23)cc1 (stereo not drawn) [Compound I-514] | 6.21 | 3.01
COc1ccc(S(=O)(=O)N(CC(C)C)CC(O)C(Cc2ccc(N(C)CCOc3ccc(-c4sc5c(c4C(=O)O)CC(C)(C)CC5)c(C)c3)cc2)NC(=O)OC2COC3(C)OCCC23)cc1 (stereo not drawn) [Compound I-519] | 8.93 | 0.429
COc1ccc(S(=O)(=O)N(CC(C)C)CC(O)C(Cc2ccc(N3CCC(c4ccccc4-c4sc5c(c4C(=O)O)CC(C)(C)CC5)C3)cc2)NC(=O)OC2COC3(C)OCCC23)cc1 (stereo not drawn) [Compound I-522] | 13.6 | 0.144
COc1ccc(S(=O)(=O)N(CC(C)C)CC(O)C(Cc2ccc(NCC3=C(c4sc5c(c4C(=O)O)CC(C)(C)CC5)CCCCC3)cc2)NC(=O)OC2COC3(C)OCCC23)cc1 (stereo not drawn) [Compound I-524] | 5.03 | 0.23
COc1ccc(S(=O)(=O)N(CC(C)C)CC(O)C(Cc2ccc(N(C)CC3=C(c4sc5c(c4C(=O)O)CC(C)(C)CC5)CCCCC3)cc2)NC(=O)OC2COC3(C)OCCC23)cc1 (stereo not drawn) [Compound I-525] | 5.75 | 0.127
COc1ccc(S(=O)(=O)N(CC(C)C)CC(O)C(Cc2ccc(NCc3ccc(C(F)(F)F)cc3-c3sc4c(c3C(=O)O)CC(C)(C)CC4)cc2)NC(=O)OC2COC3(C)OCCC23)cc1 (stereo not drawn) [Compound I-526] | 6.47 | 0.632
